Laboratory results reported in patent US20150087627A1, “COMBINATION OF KINASE INHIBITORS AND USES THEREOF” (Intellikine LLC, priority 2011, published 2015).
Like-named read-outs stand apart in the source and are kept apart here.

Tests used:
Type in all cases: biochemical
PI3K α (p110α/p85α) = target: T1, PI3K α (p110α/p85α) (Homo sapiens, UniProt P42336); experiment: PI 3-Kinase (human) HTRF assay, PI3K α; conditions: read-out: PI3K α IC50
T1 construct: purchased Upstate / Millipore Corporation
T1 sequence (P42336 whole entry): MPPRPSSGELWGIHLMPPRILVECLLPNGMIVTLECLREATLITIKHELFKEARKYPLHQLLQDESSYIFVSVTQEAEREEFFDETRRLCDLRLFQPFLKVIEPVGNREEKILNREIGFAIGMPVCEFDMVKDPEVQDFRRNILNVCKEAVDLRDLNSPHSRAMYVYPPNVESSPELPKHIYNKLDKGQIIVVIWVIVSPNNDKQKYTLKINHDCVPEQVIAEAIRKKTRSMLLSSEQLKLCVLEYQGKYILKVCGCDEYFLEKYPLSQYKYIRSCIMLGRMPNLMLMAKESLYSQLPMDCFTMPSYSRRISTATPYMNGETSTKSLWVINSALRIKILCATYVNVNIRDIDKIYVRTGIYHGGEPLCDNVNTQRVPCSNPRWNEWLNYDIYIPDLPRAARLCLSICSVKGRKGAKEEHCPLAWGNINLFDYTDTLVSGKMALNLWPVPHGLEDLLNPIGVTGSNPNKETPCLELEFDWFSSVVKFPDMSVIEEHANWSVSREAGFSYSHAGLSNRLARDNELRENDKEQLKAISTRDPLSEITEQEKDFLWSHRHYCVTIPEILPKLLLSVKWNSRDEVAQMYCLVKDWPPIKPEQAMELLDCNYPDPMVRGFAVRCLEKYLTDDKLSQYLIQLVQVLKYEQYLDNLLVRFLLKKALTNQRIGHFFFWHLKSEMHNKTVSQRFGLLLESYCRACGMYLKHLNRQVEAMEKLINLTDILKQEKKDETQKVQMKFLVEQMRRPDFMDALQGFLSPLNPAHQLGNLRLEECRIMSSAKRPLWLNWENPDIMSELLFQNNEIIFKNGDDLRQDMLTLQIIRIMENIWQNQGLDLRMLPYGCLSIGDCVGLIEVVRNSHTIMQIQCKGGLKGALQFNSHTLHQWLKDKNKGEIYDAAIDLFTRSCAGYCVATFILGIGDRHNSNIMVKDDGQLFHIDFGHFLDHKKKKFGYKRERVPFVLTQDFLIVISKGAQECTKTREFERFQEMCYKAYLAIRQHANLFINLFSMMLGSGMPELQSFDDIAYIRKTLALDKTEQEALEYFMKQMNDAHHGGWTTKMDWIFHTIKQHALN
T1 sequence (P27986 whole entry partner): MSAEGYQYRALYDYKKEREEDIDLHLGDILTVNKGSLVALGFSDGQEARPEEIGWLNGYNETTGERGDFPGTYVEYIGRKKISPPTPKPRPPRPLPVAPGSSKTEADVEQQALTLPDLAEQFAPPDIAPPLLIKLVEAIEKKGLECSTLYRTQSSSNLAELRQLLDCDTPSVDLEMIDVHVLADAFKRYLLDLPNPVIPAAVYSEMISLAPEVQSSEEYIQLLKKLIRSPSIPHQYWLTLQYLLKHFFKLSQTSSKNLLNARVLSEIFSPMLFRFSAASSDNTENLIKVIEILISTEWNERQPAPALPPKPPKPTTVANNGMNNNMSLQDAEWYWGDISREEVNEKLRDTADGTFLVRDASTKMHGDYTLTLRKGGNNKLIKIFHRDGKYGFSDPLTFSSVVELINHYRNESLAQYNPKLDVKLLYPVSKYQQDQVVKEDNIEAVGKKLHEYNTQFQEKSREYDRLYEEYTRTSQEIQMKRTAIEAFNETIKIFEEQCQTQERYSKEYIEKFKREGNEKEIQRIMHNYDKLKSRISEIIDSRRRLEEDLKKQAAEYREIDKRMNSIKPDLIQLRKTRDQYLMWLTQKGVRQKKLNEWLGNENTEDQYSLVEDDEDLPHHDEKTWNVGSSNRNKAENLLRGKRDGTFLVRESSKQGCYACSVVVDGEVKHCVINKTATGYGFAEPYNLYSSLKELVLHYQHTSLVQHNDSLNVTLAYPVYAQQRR

mTOR = target: T2, mTOR (Homo sapiens, UniProt P42345); experiment: mTOR kinase inhibition assay (radiometric or LanthaScreen TR-FRET); conditions: read-out: mTORC IC50
T2 construct: purchased Invitrogen
T2 sequence (P42345 1360-2549 limits assumed): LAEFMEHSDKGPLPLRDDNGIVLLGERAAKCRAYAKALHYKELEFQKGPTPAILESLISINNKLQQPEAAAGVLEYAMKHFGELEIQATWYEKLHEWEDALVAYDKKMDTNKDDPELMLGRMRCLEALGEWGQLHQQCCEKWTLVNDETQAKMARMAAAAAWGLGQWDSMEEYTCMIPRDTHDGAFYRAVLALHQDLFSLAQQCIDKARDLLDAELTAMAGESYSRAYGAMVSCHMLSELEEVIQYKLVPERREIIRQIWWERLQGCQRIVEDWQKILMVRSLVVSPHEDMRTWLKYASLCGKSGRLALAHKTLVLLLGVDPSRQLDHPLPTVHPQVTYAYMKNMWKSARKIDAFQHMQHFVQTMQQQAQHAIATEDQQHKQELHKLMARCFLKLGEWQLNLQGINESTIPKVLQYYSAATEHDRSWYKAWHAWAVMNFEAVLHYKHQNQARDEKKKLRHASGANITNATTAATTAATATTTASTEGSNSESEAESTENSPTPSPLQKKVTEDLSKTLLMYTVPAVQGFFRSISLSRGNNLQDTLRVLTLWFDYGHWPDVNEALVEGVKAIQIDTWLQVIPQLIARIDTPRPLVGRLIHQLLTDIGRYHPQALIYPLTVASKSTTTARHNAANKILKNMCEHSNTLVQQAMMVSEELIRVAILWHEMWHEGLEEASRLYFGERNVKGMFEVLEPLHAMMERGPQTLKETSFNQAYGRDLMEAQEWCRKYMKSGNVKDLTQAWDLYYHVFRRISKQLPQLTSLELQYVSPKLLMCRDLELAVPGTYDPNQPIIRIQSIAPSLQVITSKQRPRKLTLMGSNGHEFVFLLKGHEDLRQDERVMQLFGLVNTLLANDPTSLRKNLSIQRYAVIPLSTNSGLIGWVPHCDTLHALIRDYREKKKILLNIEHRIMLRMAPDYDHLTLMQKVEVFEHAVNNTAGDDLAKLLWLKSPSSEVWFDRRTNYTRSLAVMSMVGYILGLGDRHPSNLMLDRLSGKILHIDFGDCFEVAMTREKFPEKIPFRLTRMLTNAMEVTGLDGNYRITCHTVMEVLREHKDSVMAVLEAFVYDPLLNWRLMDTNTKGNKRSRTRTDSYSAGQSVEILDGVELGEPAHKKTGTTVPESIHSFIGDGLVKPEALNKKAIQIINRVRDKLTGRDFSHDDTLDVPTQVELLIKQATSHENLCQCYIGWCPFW

PI3K δ = target: T3, PI3K δ (Homo sapiens, UniProt O00329); experiment: PI 3-Kinase (human) HTRF assay, PI3K δ; conditions: read-out: PI3K δ IC50
T3 construct: purchased Upstate / Millipore Corporation

PI3K β (p110β/p85α) = target: T4, PI3K β (p110β/p85α) (Homo sapiens, UniProt P42338); experiment: PI 3-Kinase (human) HTRF assay, PI3K β; conditions: read-out: PI3K β IC50
T4 construct: purchased Upstate / Millipore Corporation

PI3K γ (p110γ) = target: T5, PI3K γ (p110γ) (Homo sapiens, UniProt P48736); experiment: PI 3-Kinase (human) HTRF assay, PI3K γ; conditions: read-out: PI3K γ IC50
T5 construct: purchased Upstate / Millipore Corporation
T5 sequence (P48736 whole entry): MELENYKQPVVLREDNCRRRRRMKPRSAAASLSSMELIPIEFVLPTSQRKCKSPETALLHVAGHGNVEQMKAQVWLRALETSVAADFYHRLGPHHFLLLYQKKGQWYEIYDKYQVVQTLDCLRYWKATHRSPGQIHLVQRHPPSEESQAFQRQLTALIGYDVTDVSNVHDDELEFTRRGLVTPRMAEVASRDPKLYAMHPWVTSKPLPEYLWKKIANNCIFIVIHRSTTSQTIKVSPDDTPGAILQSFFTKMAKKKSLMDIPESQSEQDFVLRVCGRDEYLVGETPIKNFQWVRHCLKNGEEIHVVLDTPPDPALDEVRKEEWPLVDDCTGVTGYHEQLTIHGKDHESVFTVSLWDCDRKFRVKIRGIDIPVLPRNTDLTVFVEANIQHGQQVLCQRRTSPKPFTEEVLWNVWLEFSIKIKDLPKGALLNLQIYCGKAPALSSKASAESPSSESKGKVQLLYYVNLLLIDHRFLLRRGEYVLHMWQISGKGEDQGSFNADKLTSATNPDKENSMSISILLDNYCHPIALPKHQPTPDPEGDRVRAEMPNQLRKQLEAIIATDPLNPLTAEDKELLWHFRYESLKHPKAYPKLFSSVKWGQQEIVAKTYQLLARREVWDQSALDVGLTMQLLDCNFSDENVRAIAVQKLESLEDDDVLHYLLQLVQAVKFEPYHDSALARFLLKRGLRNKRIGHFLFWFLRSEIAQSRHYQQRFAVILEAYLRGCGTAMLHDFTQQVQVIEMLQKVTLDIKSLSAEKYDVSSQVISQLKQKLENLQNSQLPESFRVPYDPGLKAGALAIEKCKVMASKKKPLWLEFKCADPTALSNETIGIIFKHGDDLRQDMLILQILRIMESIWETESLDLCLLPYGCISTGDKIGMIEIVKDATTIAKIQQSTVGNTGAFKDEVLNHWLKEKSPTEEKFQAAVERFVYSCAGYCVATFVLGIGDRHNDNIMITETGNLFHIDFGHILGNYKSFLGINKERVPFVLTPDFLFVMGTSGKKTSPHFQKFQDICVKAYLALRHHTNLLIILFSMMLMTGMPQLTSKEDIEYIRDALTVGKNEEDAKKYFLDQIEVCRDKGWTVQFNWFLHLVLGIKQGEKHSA

SMILES	IC50 (PI3K α (p110α/p85α)) [µM]	IC50 (PI3K δ) [µM]	IC50 (PI3K β (p110β/p85α)) [µM]	IC50 (PI3K γ (p110γ)) [µM]	IC50 (PI3K β (p110β/p85α); Table 4 (PI3K α inhibitors)) [µM]	IC50 (PI3K γ (p110γ); Table 4 (PI3K α inhibitors)) [µM]	IC50 (PI3K δ; Table 4 (PI3K α inhibitors)) [µM]	IC50 (mTOR) [µM]	IC50 (PI3K α (p110α/p85α); Table 4 (PI3K α inhibitors)) [µM]	IC50 (mTOR; Table 4 (PI3K α inhibitors)) [µM]
Nc1nc2cc(-c3ccc4ncc(-c5ccnc(N6CCOCC6)c5)n4c3)ccc2o1 [Compound 52]	< 0.1	< 0.1	–	–	–	–	–	< 10	–	–
N#Cc1cnc2ccc(-c3ccc4oc(N)nc4c3)cc2c1Cl [Compound 77]	–	–	–	–	–	–	–	< 1	–	–
Nc1nc2cc(-c3ccc4oc(N)nc4c3)ccc2o1 [Compound 240]	< 1	< 10	–	–	–	–	–	< 10	–	–
O=C(c1cnc2ccc(-c3cncc4[nH]ncc34)cn12)N1CCOCC1 [Compound 506]	< 0.1	> 10	> 10	> 10	–	–	–	–	–	–
Cc1cc2ncc(C(=O)N3CCOCC3)n2cc1-c1ccc2oc(N)nc2c1 [Compound 507]	> 10	> 10	> 10	> 10	–	–	–	–	–	–
C[C@@H]1CN(C2CN(C(=O)c3cnc4ccc(-c5ccc6oc(N)nc6c5)cn34)C2)CCN1C [Compound 508]	< 0.1	< 1	< 10	< 10	–	–	–	–	–	–
O=C(c1cnc2ccc(-c3ccc4c(Nc5ccccc5)noc4c3)cn12)N1CCOCC1 [Compound 509]	> 10	> 10	> 10	> 10	–	–	–	–	–	–
C[C@H]1CN(C2CN(C(=O)c3cnc4ccc(-c5ccc6oc(N)nc6c5)cn34)C2)CCN1 [Compound 510]	< 0.1	< 1	< 10	< 10	–	–	–	–	–	–
CC1(C)CN(C2CN(C(=O)c3cnc4ccc(-c5ccc6oc(N)nc6c5)cn34)C2)CCN1 [Compound 515]	< 0.1	< 0.1	< 10	< 1	–	–	–	–	–	–
CC(C)N1CCC(n2cnc3ccc(-c4cncc(NS(=O)(=O)c5ccc(F)cc5F)c4)cc3c2=O)CC1 [Compound 519]	< 1	< 10	< 10	< 1	–	–	–	–	–	–
COc1ncc(-c2ccc3ncn(C4CCN(C(C)C)CC4)c(=O)c3c2)cc1NS(=O)(=O)c1ccccc1 [Compound 522]	< 0.1	< 0.1	< 0.1	< 0.1	–	–	–	–	–	–
CC(C)N1CCC(n2cnc3ccc(-c4cnc(Cl)c(NS(C)(=O)=O)c4)cc3c2=O)CC1 [Compound 523]	< 0.1	< 0.1	< 1	< 0.1	–	–	–	–	–	–
CN1CCC(n2cnc3ccc(-c4cnc(Cl)c(NS(C)(=O)=O)c4)cc3c2=O)CC1 [Compound 526]	< 0.1	< 1	< 10	> 10	–	–	–	–	–	–
CN1CC(n2cnc3ccc(-c4ccc5oc(N)nc5c4)cc3c2=O)C1 [Compound 528]	< 1	> 10	< 10	> 10	–	–	–	–	–	–
CN1CC2CN(C(=O)c3cnc4ccc(-c5ccc6oc(N)nc6c5)cn34)CC2C1 (centres unmarked) [Compound 533]	< 0.1	< 1	< 1	< 1	–	–	–	–	–	–
Nc1nc2cc(-c3cnc4ccc(C(=O)N5C6CCC5COC6)cn34)ccc2o1 [Compound 540]	> 10	> 10	> 10	> 10	–	–	–	–	–	–
Nc1nc2ccc(-c3ccc4ncc(C(=O)N5CCOCC5)n4c3)cc2[nH]1 [Compound 544]	< 1	> 10	> 10	> 10	–	–	–	–	–	–

SMILES	IC50 (PI3K α (p110α/p85α)) [µM]	IC50 (PI3K δ) [µM]	IC50 (PI3K β (p110β/p85α)) [µM]	IC50 (PI3K γ (p110γ)) [µM]	IC50 (PI3K β (p110β/p85α); Table 4 (PI3K α inhibitors)) [µM]	IC50 (PI3K γ (p110γ); Table 4 (PI3K α inhibitors)) [µM]	IC50 (PI3K δ; Table 4 (PI3K α inhibitors)) [µM]	IC50 (mTOR) [µM]	IC50 (PI3K α (p110α/p85α); Table 4 (PI3K α inhibitors)) [µM]	IC50 (mTOR; Table 4 (PI3K α inhibitors)) [µM]
CN1CCN(CCc2nnc3ccc(-c4ccc5nc(N)oc5c4)cn23)CC1 [Compound 545]	> 10	> 10	> 10	> 10	–	–	–	–	–	–
Cc1cc(-c2ccc3nc(N)oc3c2)cn2c(N3CCN(C)CC3)nnc12 [Compound 546]	> 10	> 10	> 10	> 10	–	–	–	–	–	–
CN1CCN(Cc2nnc3ccc(-c4ccc5nc(N)oc5c4)cn23)CC1 [Compound 547]	> 10	> 10	> 10	> 10	–	–	–	–	–	–
Nc1nc2cc(-c3ccc4ncc(N5CCC(F)(F)CC5)nc4n3)ccc2o1 [Compound 564]	–	–	–	–	> 10	< 0.1	> 10	–	< 0.1	–
CC1(C)CN(C2CN(c3cnc4ccc(-c5ccc6oc(N)nc6c5)nc4n3)C2)CCO1 [Compound 568]	–	–	–	–	> 10	< 10	> 10	–	< 1	–
Nc1nc2cc(-c3ccc4ncc(N5CCOCC5)cc4n3)ccc2o1 [Compound 573]	–	–	–	–	< 1	< 0.1	> 10	–	< 0.1	–
C[C@H](N)C(=O)N1CCN(c2cnc3ccc(-c4ccc5oc(N)nc5c4)nc3n2)CC1 [Compound 581]	–	–	–	–	< 0.1	< 0.1	< 0.1	–	< 0.1	–
Nc1nc2cc(-c3ccc4ncc(N5CC(N6CCNCC6)C5)nc4n3)ccc2o1 [Compound 585]	–	–	–	–	> 10	> 10	> 10	–	< 1	–
Nc1nc2cc(-c3ccc4ncc(N5CC(N6CCN(CC7CC7)CC6)C5)nc4n3)ccc2o1 [Compound 586]	–	–	–	–	–	–	–	–	< 0.1	> 10
C[C@@H](N)C(=O)N1CCN(c2cnc3ccc(-c4ccc5oc(N)nc5c4)nc3c2)CC1 [Compound 590]	–	–	–	–	< 0.1	< 1	< 1	–	< 0.1	–
CC(C)(N)C(=O)N1CCN(c2cnc3ccc(-c4ccc5oc(N)nc5c4)nc3n2)CC1 [Compound 591]	–	–	–	–	–	–	–	–	< 0.1	> 10
Nc1nc2cc(-c3ccc4ncc(N5CC(N6CCN(CCO)CC6)C5)nc4n3)ccc2o1 [Compound 597]	–	–	–	–	–	–	–	–	< 0.1	> 10
Cc1nccn1C1CN(c2cnc3ccc(-c4ccc5oc(N)nc5c4)nc3n2)C1 [Compound 601]	–	–	–	–	–	–	–	–	< 0.1	> 10
CC1(C)CN(C2CN(c3cnc4ccc(-c5ccc6oc(N)nc6c5)nc4n3)C2)CCN1 [Compound 603]	–	–	–	–	–	–	< 1	–	< 0.1	> 10
C[C@H]1CN(C2CN(c3cnc4ccc(-c5ccc6oc(N)nc6c5)nc4c3)C2)CCN1 [Compound 605]	–	–	–	–	–	–	< 1	–	< 0.1	> 10
CCN1CCN(C2CN(c3cnc4ccc(-c5ccc6oc(N)nc6c5)nc4n3)C2)CC1 [Compound 627]	–	–	–	–	–	–	–	–	< 0.1	< 10

Now from value to compound, other results behind:

IC50 (PI3K α (p110α/p85α)) [µM]	IC50 (PI3K δ) [µM]	IC50 (PI3K β (p110β/p85α)) [µM]	IC50 (PI3K γ (p110γ)) [µM]	IC50 (PI3K β (p110β/p85α); Table 4 (PI3K α inhibitors)) [µM]	IC50 (PI3K γ (p110γ); Table 4 (PI3K α inhibitors)) [µM]	IC50 (PI3K δ; Table 4 (PI3K α inhibitors)) [µM]	SMILES	IC50 (mTOR) [µM]	IC50 (PI3K α (p110α/p85α); Table 4 (PI3K α inhibitors)) [µM]	IC50 (mTOR; Table 4 (PI3K α inhibitors)) [µM]
< 1	> 10	> 10	< 10	–	–	–	CC1(C)CN(C(=O)c2cnc3ccc(-c4ccc5oc(N)nc5c4)cn23)CCO1 [Compound 513]	–	–	–
< 1	> 10	> 10	> 10	–	–	–	O=C(c1cnc2ccc(-c3cnc(Cl)c4[nH]ncc34)cn12)N1CCOCC1 [Compound 516]	–	–	–
< 1	< 10	> 10	< 10	–	–	–	COc1ncc(-c2ccc3ncc(C(=O)N4CCOCC4)n3c2)c2cn[nH]c12 [Compound 517]	–	–	–
< 1	> 10	> 10	> 10	–	–	–	CN1CCN(n2cnc3ccc(-c4ccc5oc(N)nc5c4)cc3c2=O)CC1 [Compound 518]	–	–	–
> 10	> 10	> 10	> 10	–	–	–	CC(C)N1CCC(n2cnc3ccc(-c4cncc(NS(C)(=O)=O)c4)cc3c2=O)CC1 [Compound 520]	–	–	–
< 0.1	< 0.1	< 0.1	< 1	–	–	–	COc1ncc(-c2ccc3ncn(C4CCN(C)CC4)c(=O)c3c2)cc1NS(=O)(=O)c1ccccc1 [Compound 524]	–	–	–
< 0.1	< 0.1	< 1	< 10	–	–	–	COc1ncc(-c2ccc3ncn(C4CCN(C)CC4)c(=O)c3c2)cc1NS(C)(=O)=O [Compound 525]	–	–	–
< 0.1	< 0.1	< 0.1	< 1	–	–	–	CN1CCC(n2cnc3ccc(-c4cnc(Cl)c(NS(=O)(=O)c5ccccc5)c4)cc3c2=O)CC1 [Compound 527]	–	–	–
< 10	> 10	> 10	> 10	–	–	–	O=C(c1cnc2ccc(-c3cnc4cn[nH]c4c3)cn12)N1CCOCC1 [Compound 535]	–	–	–
> 10	> 10	> 10	> 10	–	–	–	CN1CCN(c2nnc3ccc(-c4ccc5nc(N)oc5c4)cn23)CC1 [Compound 542]	–	–	–
> 10	> 10	> 10	> 10	–	–	–	Cc1cc(-c2ccc3nc(N)oc3c2)cn2c(CCN3CCN(C)CC3)nnc12 [Compound 548]	–	–	–
> 10	> 10	> 10	> 10	–	–	–	Cc1cc(-c2ccc3nc(N)oc3c2)cn2c(CN3CCN(C)CC3)nnc12 [Compound 549]	–	–	–
< 0.1	< 10	< 1	< 0.1	–	–	–	Nc1nc2cc(-c3ccc4ncc(C(=O)NCCOCC(=O)O)n4c3)ccc2o1 [Compound 551]	–	–	–
–	–	–	–	> 10	> 10	> 10	Nc1nc2cc(-c3ccc4nc(N5CCOCC5)cnc4n3)ccc2o1 [Compound 558]	–	> 10	–
–	–	–	–	< 1	< 1	< 1	C[C@H](N)C(=O)N1CCN(c2cnc3ccc(-c4ccc5oc(N)nc5c4)nc3c2)CC1 [Compound 589]	–	< 0.1	–
–	–	–	–	< 1	< 0.1	< 1	Nc1nc2cc(-c3ccc4ncc(N5CCN(C(=O)C6(N)CC6)CC5)cc4n3)ccc2o1 [Compound 593]	–	< 0.1	–
